# Laboratory results as given in patent publication US20160367620A1, “GLUTATHIONE” (priority 2015, published 2016).
# Values joined by “and” are separate entries in the source; they are usually repeats but may differ in a detail not shown here. Equal values may be shown once. Read-outs that look alike come from different tables or passages of the source.
# Legend:
# HIV-1 LTR = settings: Jurkat cells; cited from earlier work
# NFκB = settings: Jurkat cells, various concentrations; cited from earlier work
# HUVEC and QG90 cell = settings: pretreatment of HUVEC, IL-1 induced; cited from earlier work
# [1] = test system: human immunodeficiency virus (HIV) expression; settings: U1 cells; cited from earlier work
# guinea pigs = settings: ascorbate deficient guinea pigs, 3.75 mmol/kg daily (1,152 mg/kg daily) in three divided doses; cited from earlier work
# microglial cells = settings: NO and superoxide generated via iNOS and NADPH-oxidase; cited from earlier work
# cytotoxic T-lymphocytes = settings: mouse, injection of GSH on the third day post immunization; cited from earlier work
# monocyte-macrophages = settings: by conjugation of HNE; cited from earlier work
# [2] = cited from earlier work
# [3] = test system: glucose-induced insulin secretion; settings: infusion 10 mg/min for 120 min, cited from earlier work
# hepatocellular carcinoma = settings: 5 g oral per day, two female patients who survived 1 year; cited from earlier work
# [4] = test system: Concanavalin A stimulated proliferation of splenocytes; settings: rats, dietary GSH supplementation; cited from earlier work
# [5] = 1,200 mg/day i.v.; cited from earlier work
# [6] = test system: human venous endothelial cells and rat aortic smooth muscle cells; settings: cited from earlier work
# HIV [7] = settings: chronically infected cells, exogenous GSH; cited from earlier work
# herpes viruses = settings: cell culture, extracellular glutathione; cited from earlier work
# [8] = i.v. GSH coadministration; cited from earlier work
# Mouse [9] = settings: cited from earlier work
# [10] = test system: Peripheral Blood Mononuclear Cells (PBMC's)
# Method: A total of 10,000 glutathione assays were performed.
# The Phase I/II data, was based on approximately 10,000 glutathione assays of peripheral blood mononuclear cells (PBMC's) of HIV positive people given the drug regimen.
# The study detailed in Appendix B administered the glutathione to HIV infected, otherwise healthy males between 18 and 65, with CD4+ cell counts above 500, not on any other medications.
# 24 HIV positive people received glutathione in a clinical trial. The first dose of one gram was taken at 0 time, or 10:00 a.m., and the second dose at 3 hours, or 1:00p.m. A baseline was measured two weeks earlier, on the same patient. A temporary intravenous catheter was in place for 7 hours to permit frequent blood sampling at the numerous time points.
# HIV [11] = settings: 75 mg/kg in two equally divided doses
# [12] = human, in vivo, po, 15 mg/kg; cited from earlier work
# [13] = cited from earlier work; remark: listed apart in the source
# HIV-1 [14] = settings: cited from earlier work; for persistence of anti-HIV-1 effect in culture: single pulse exposure, monocyte/macrophages in vitro
# [15] = rat, plasma; cited from earlier work
# HIV-1 [16] = settings: human macrophages, cited from earlier work
# [17] = human, in vivo, iv
# From the text: The kinetics and the effect of glutathione on plasma and urine sulfhydryls were studied in ten healthy human volunteers.
# [18] = test system: high-affinity component of mitochondrial glutathione transport; settings: stimulated by ATP; cited from earlier work
# NFκB and COX-2 = settings: cited from earlier work
# [19] = test system: mouse neuroblastoma cells; settings: coadministration; cited from earlier work
# RPE cells = settings: GSH supplemented in the medium; cited from earlier work
# human IL-4 production = settings: stimulated peripheral blood T cells, Th0- and Th2-like T cell clones; cited from earlier work
# [20] = human, in vivo, cited from earlier work
# Mouse [21] = settings: pretreatment; cited from earlier work
# [22] = test system: murine macrophage J774 cells; settings: exposure to the NO-releasing compound; cited from earlier work
# Mouse [23] = settings: subcutaneous injection; cited from earlier work
# P-selectin = settings: human endothelial cells; cited from earlier work
# topoisomerase II = settings: cited from earlier work
# 8E5 cells = settings: HIV gene expression, low GSH-peroxidase activity; cited from earlier work
molecule,measurement,setting,value
"N/C(=N\O)c1cc(O)c(O)c(O)c1 [TD, Trimidox]",induction of HIV-1 LTR-mediated gene expression by TNF-α and Tat,HIV-1 LTR,significantly suppressed
same,TNF-α-induced NFκB binding,NFκB,inhibited
CC(=O)Oc1ccccc1C(=O)O [aspirin],cell-to-cell attachment of cancer cells to HUVEC,HUVEC and QG90 cell,efficiently blocked the cell-to-cell attachment in a dose-dependent manner
"N[C@@H](CCC(=O)N[C@@H](CS)C(=O)NCC(=O)O)C(=O)O [GSH, gamma-glutamyl-cysteinyl-glycine]",cytotoxic or cytostatic effects,[1],absence of cytotoxic or cytostatic effects
same,"induction of HIV expression mediated by PMA, TNF-α, or IL-6",[1],suppressed in a dose-dependent fashion
same,toxicity,guinea pigs,toxic
same,peroxynitrite formation,microglial cells,significantly decreased peroxynitrite formation
same,augmentation of cytotoxic activity,cytotoxic T-lymphocytes,5 fold
same,macrophage death,monocyte-macrophages,protected against macrophage death
same,systolic and diastolic blood pressure,"[2]; 1,844 mg i.v. bolus, hypertensive patients and non-hypertensive diabetics",rapid and significant decrease in both systolic and diastolic blood pressure
same,blood pressure,"[2]; 1,844 mg i.v. bolus, normal healthy subjects",no effect
same,return of blood pressure to baseline,"[2]; 1,844 mg i.v. bolus",≤ 30 min
same,blood pressure values,"[2]; 3,699 mg dose, normal subjects",significant decrease in the blood pressure values in normal subjects
same,insulin clearance and action,[3],No effect
same,glucose-induced insulin secretion,[3]; patients with IGT,significantly potentiated glucose-induced insulin secretion
same,tumor growth,hepatocellular carcinoma,regression or stagnation of their tumor growth
same,age-associated decline of immune response,[4],reverse age-associated decline of immune response
same,"hematologic parameters (hematocrit, hemoglobin, blood count) compared to baseline",[5],significantly increase studied hematologic parameters
same,"peroxynitrite induced suppression of mitochondrial respiration, nitrotyrosine formation, protein oxidation, DNA single strand breakage",[6],attenuated
same,"virus infectivity, budding and release of virus particles",HIV [7],strongly suppresses
same,reproduction of herpes viruses,herpes viruses,inhibited or reduced
same,nephrotoxicity of cisplatin and/or cyclophosphamide combination therapy,[8],reduces associated nephrotoxicity
same,LD50,Mouse [9]; Intramuscular,4000 mg/kg
same,LD50,Mouse [9]; Intraperitoneal,4020 mg/kg and 6815 mg/kg
same,LD50,Mouse [9]; Intravenous,2238 mg/kg
same,LD50,Mouse [9]; Oral,5000 mg/kg
same,LD50,Mouse [9]; Subcutaneous,5000 mg/kg
same,intracellular glutathione insufficiency,[10]; PBMC's of HIV positive people,correction of the intracellular glutathione insufficiency was evident
same,dose dependence of PBMC glutathione,[10]; in vivo,dose response relationship
same,safety,[10]; in vivo,no evidence of toxicities
same,absorption and distribution within the PBMC completed,"[10]; male, human, in vivo, po",60 min
same,share absorbed and intracellular,"[10]; male, human, in vivo, po",80%
same,start of distribution into PBMC's / absorption after oral ingestion,"[10]; male, human, in vivo, po",≤ 0.5 h
same,survival after starting on GSH,HIV [11]; four far advanced AIDS patients who followed the regimen,3 years
same,CD4+ cell counts,HIV [11]; four patients,did not restore their CD4+ cell counts to any extent
same,rise of plasma glutathione levels over the basal concentration,[12],1.5-10 fold
same,benefit,"[13]; 3 grams daily for three months, 46 AIDS patients",no benefit was conclusively demonstrated
same,adverse effects,"[13]; human, in vivo",No significant GSH-related adverse effects were reported
same,HIV-1 expression in peripheral blood mononuclear cells (PBMC),HIV-1 [14]; in vitro,blocked or substantially reduced
same,cellular toxicity in monocyte/macrophages,HIV-1 [14]; in vitro,without producing detectable cellular toxicity
same,duration of suppression of HIV production,"HIV-1 [14]; infected monocytes, intracellular glutathione raised to the high end of the normal range",about 35 days
same,HIV-1 p24 antigen levels and reverse transcriptase activity,HIV-1 [14]; single pulse exposure of HIV-1-infected monocyte/macrophages,"sustained, concentration-dependent decrease"
same,persistence of anti-HIV-1 effect in culture,HIV-1 [14],at least 35 days
same,persistence of anti-HIV-1 effect in culture,HIV-1 [14]; listed as glutathione,35 days
same,share of the remaining 30% as GSSG,[15],9.5%
same,share of the remaining 30% as the mixed disulfide with cysteine,[15],62.6%
same,production of p24 gag protein and virus infectivity,HIV-1 [16]; exogenous GSH,strongly suppressed
same,half-life,[17],14.1-9.2 minutes
same,V max,[18],approximately 0.5 n mol/min per mg of protein
same,activation of NFκB and COX-2 by H. pylori infection,NFκB and COX-2,inhibited
same,deleterious effects of methylmercury,[19],largely prevented
same,growth of RPE cell cultures,RPE cells,thrive
same,human IL-4 production,human IL-4 production,decreased in a dose-dependent manner
same,volume of distribution of exogenous glutathione,[20]; iv,176-107 MI/Kg
same,plasma concentration of total cyst(e)ine,[20],decreased
same,morphine-induced lethality,Mouse [21],protects against morphine-induced lethality
"CCCCS(=N)(=O)CCC(N)C(=O)O (centres unmarked) [BSO, buthionine sulfoximine]",HIV yield in the supernatant,HIV-1 [16],significantly increased
"CC(=O)N[C@H](C(=O)O)C(C)(C)SN=O [SNAP, S-nitroso-N-acetyl penicillamine]",viability of macrophages,[22],diminished
CN1CC[C@]23c4c5ccc(O)c4O[C@H]2C(=O)C=C[C@H]3[C@H]1C5 [morphinone],toxicity relative to morphine,Mouse [23],9 times
O=C([O-])c1ccccc1O.[Na+] [sodium salicylate],IL-4 induced expression of P-selectin,P-selectin,inhibited
"CCN1C(=O)C=CC1=O [NEM, N-ethyl maleimide]",topoisomerase II-mediated DNA cleavage,topoisomerase II,caused topoisomerase II-mediated DNA cleavage
glutathione ester [GSE],"induction of HIV expression mediated by PMA, TNF-α, or IL-6",[1],suppressed in a dose-dependent fashion
"O=[N+]([O-])c1ccc(SSc2ccc([N+](=O)[O-])cn2)nc1 [2,2′ dithiobis (5-nitropyridine)]",topoisomerase II-mediated DNA cleavage,topoisomerase II,caused topoisomerase II-mediated DNA cleavage
CC(=O)CCCCn1c(=O)c2c(ncn2C)n(C)c1=O [pentoxyphillin],cell-to-cell attachment of cancer cells to HUVEC,HUVEC and QG90 cell,efficiently blocked the cell-to-cell attachment in a dose-dependent manner
"CCCCCC(/C=C/C=C\C/C=C\C/C=C\CCCC(=O)O)OO (centres unmarked) [Example 15-HPETE, 15-hydroperoxy eicosatetraenoic acid]",increase in sensitivity of 8E5 cells to killing,8E5 cells,10 fold
